Test results: the METLIN SMRT retention time set (Domingo-Almenara et al. 2019)

Assay: gradient 5% acetonitrile 3 min, to 50% in 2 min, to 85% in 15 min, held 3 min, 100 µL/min
Details: column: Zorbax Extend-C18 2.1 x 50 mm; eluents: water / acetonitrile, 0.1% formic acid
Procedure, shortened: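 The mobile phases were water and acetonitrile, each with 0.1% formic acid, pumped at 100 μL/min through a Zorbax Extend-C18 column (2.1 × 50 mm, 1.8 μm). Pure standards were injected as mixtures of ~100 molecules and detected by a quadrupole time-of-flight mass spectrometer in positive and negative ionization mode. Retention time came from computationally picked adduct peaks, each inspected by hand.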

Row | Compound | RP-LC retention time
1 | COc1cccc(CC(=O)N2CCC3(CC2)N=C(c2ccccc2)NO3)c1 | 802 s
2 | COC(=O)c1nc(NC(=O)Cn2nc3c(cc2=O)CCCC3)sc1Cc1ccccc1 | 868 s
3 | CCn1c(C(=O)NCCCN2CCCC(C)C2)cc2cc(S(=O)(=O)N(C)C)ccc21 (stereo not drawn) | 677 s
4 | C=Cc1ccc(CN2CCCN(c3ncccc3-c3nc(CCC)no3)CC2)cc1 | 766 s
5 | CC1CC(C)CN(CCCNC(=O)c2ccc3c(c2)NC(=O)CS3)C1 (stereo not drawn) | 605 s
6 | Cc1cc(=O)n(CC(=O)Nc2ccc(Cl)cc2)c(N2CCCCC2)n1 | 708 s
7 | Cc1nc(-c2ccccc2)nc2c1CCC(=O)N2Cc1cccs1 | 1120 s
8 | O=C(NC1CC1)c1cccnc1N1CCSCC1 | 623 s
9 | Cc1c(Cl)cccc1N1C(=O)CN(S(C)(=O)=O)CC1(C)C(=O)NC1CCCCC1 (stereo not drawn) | 892 s
10 | O=C(NC1CC1)c1ccccc1OC1CN(Cc2ccsc2)C1 | 600 s
11 | Cc1cccc2nnc(N3CCN(C(=O)c4ccc5c(c4)OCO5)CC3)n12 | 556 s
12 | Cc1cc(NC(=O)CSc2nnc(CNC(=O)c3c(F)cccc3Cl)o2)no1 | 657 s
13 | CCCn1nccc1-c1csc(S(=O)(=O)NC(C)(C)CC)c1 | 975 s
14 | CCc1ccc(C2=C(C)C(N3CCC(NC(=O)C(C)(C)CC)CC3)=NS2(=O)=O)cc1 | 965 s
15 | Cc1noc(CNC(=O)C2CCN(C(=O)c3ccc4ncsc4c3)CC2)n1 | 574 s
16 | CC1CCN(C(=O)c2ccc(-c3ccsc3)nc2)CC1 | 876 s
17 | COc1ccc(C2(C(=O)Nc3cc(-c4nnc(C)o4)sc3C)CC2)cc1 | 989 s
18 | O=C(Cn1cc(-c2nnc(-c3ccco3)o2)c2ccccc21)N1CCCC1 | 724 s
19 | COC(=O)c1cccc(C(=O)N2CCc3ccccc32)n1 | 797 s

Row | Compound | RP-LC retention time
20 | Cc1ccc(C)c(Cn2nnc(C(=O)O)c2-c2ccccn2)c1 | 752 s
21 | O=C(NCC(c1ccco1)N1CCN(c2ccc(F)cc2)CC1)c1cnccn1 (stereo not drawn) | 585 s
22 | CCOC(=O)c1c(C)[nH]c(C(=O)N2CCC(C(C)C(=O)NCc3ccc(C)cc3)CC2)c1C (stereo not drawn) | 846 s
23 | CC1C(=O)NCCN1C(=O)c1ccc(Oc2ccccc2)cc1 (stereo not drawn) | 670 s
24 | CCOc1ccc(C2Cn3nnc(-c4nc(C5CCCCC5)no4)c3CO2)cc1 (stereo not drawn) | 1290 s
25 | Cc1cc(C(=O)N2CCCn3ccnc3C2c2cnn(C)c2)c(C)o1 (stereo not drawn) | 587 s
26 | Cc1noc(-c2cccc(OC3CN(C(=O)Cc4ccccc4)C3)c2)n1 | 854 s
27 | CCn1ccc(NC(=O)Nc2ccccc2C)n1 | 801 s
28 | CCC(C)NC(=O)N1CC(n2cc(C(=O)N3CCOCC3)nn2)C1 (stereo not drawn) | 608 s
29 | COCc1cc(=O)n(CC(=O)Nc2ccccc2F)c(N2CCOCC2)n1 | 789 s
30 | CSc1nnc(-c2nn(C)c3c2CN(C(=O)c2cccc(Cl)c2)CC3)n1C | 737 s
31 | Cc1ccc2c(c1)N(C(=O)Cn1c(=O)n(C3CC3)c(=O)c3nscc31)CCO2 | 773 s
32 | CC(Oc1ccccc1)C(=O)N1CCCn2nc(-c3cccs3)cc2C1 (stereo not drawn) | 844 s
33 | CCCS(=O)(=O)N1CCN(C(=O)c2cc(-c3ccc(OC)cc3)n[nH]2)CC1 | 745 s
34 | CC(C)c1noc(C2Cc3ccccc3N2C(=O)Nc2ccc3c(c2)OCCO3)n1 (stereo not drawn) | 936 s
35 | CC1CN(C(=O)Cn2cc(SCC(=O)N3CCCCCC3)c3ccccc32)CC(C)O1 (stereo not drawn) | 889 s
36 | Cc1ccc(-c2nc(N3CC(C)CC(C)C3)c3ccccc3n2)cc1 (stereo not drawn) | 932 s
37 | COc1ccc(CNC(=O)N2CC=C(c3cn(C)c4ncccc34)CC2)cc1 | 752 s
38 | CCn1ccc2sc(C)c(C(=O)NCc3ccc(Br)cc3)c2c1=O | 911 s

Row | Compound | RP-LC retention time
39 | CCC(=O)N1CCCN(C2=NS(=O)(=O)C(c3ccc(F)cc3)=C2C)CC1 | 698 s
40 | CN(Cc1ccccc1)C(=O)CN1C(=O)CCCc2cc(S(=O)(=O)N3CCCCC3)ccc21 | 907 s
41 | CN(C)C[C@@H]1CN(c2ncccn2)C[C@H]1NS(=O)(=O)Cc1ccccc1 | 601 s
42 | Cc1ccc(CNC(=O)C2CCCN(S(=O)(=O)c3cc(-c4noc(C)n4)cs3)C2)o1 (stereo not drawn) | 864 s
43 | COc1ccc(CNC(=O)C2CCN(C(=O)N3CCOc4ccc(Cl)cc43)CC2)cc1 | 846 s
44 | CCOc1ccccc1NC(=O)N1CCC2(CC1)NC(=O)c1ccc(F)cc1N2C | 817 s
45 | CCc1nc(N2CCCC2=O)sc1C(=O)NCc1ccccc1Cl | 874 s
46 | CC(C)CCNC(=O)C1CCN(c2nc3ccc(-c4cncnc4)nc3s2)CC1 | 824 s
47 | COc1cccc(N2CCN(C(=O)CN3CCN(Cc4ccccc4)C(=O)C3=O)CC2)c1 | 726 s
48 | CCOC(=O)c1sc(NC(=O)CC(C)C)nc1-c1ccccc1 | 1050 s
49 | CCOC(=O)c1c(C)c(CCC(=O)NCc2ccc3c(c2)OCO3)n(C)c1C | 836 s
50 | Cc1nn(C)c(C)c1S(=O)(=O)N1CCN(C(=O)C(C)Oc2ccccc2)CC1 (stereo not drawn) | 761 s
51 | Cc1ccc(CNC(=O)C2CCN(S(=O)(=O)c3ccc4c(c3)CCCC(=O)N4)CC2)o1 | 710 s
52 | Fc1cccc(Cn2cc(-c3noc(-c4ccc5c(c4)OCO5)n3)nn2)c1 | 962 s
53 | COc1nn(C)cc1C(=O)NCC1(c2ccc(F)cc2)CC1 | 751 s
54 | COC1CCC12CCN(C(=O)c1conc1C)CC2 (stereo not drawn) | 679 s
55 | CCOC(=O)c1cnc(N2CCN(c3ccccn3)CC2)c2ccccc12 | 692 s
56 | COc1ccc(NC(=O)CCc2c(C)nn(-c3cc(N4CCCC4)ncn3)c2C)c(OC)c1 | 801 s

Other lines, results leading:

Row | RP-LC retention time | Compound
57 | 1020 s | COC(=O)c1ccc2c(=O)n(-c3ccc(C)c(F)c3)c(N3CCCC3)nc2c1
58 | 709 s | Cc1ccc(S(=O)(=O)N2CCC3(CC2)NCCN=C3NCc2ccc(F)cc2)cc1
59 | 971 s | Cn1c(=O)c(N2CCC(NC(=O)Nc3ccc(F)c(Cl)c3)CC2)nc2ccccc21
60 | 1040 s | Cc1sc(NC(=O)c2cccc(Br)c2)nc1-c1ccc2c(c1)NC(=O)C(C)O2 (stereo not drawn)
61 | 1010 s | COc1ccccc1NC(=O)Cn1c2ccccc2n2c(=O)cc(-c3ccc(F)cc3)nc12
62 | 692 s | Cc1nnc2ccc(S(=O)(=O)Nc3ccc(F)c(F)c3)cn12
63 | 997 s | O=c1c2cnc3nc(-c4ccccc4)nn3c2ccn1CCc1c[nH]c2ccc(Cl)cc12
64 | 953 s | CCCS(=O)(=O)c1nc2ccc(NS(=O)(=O)Cc3ccc(Cl)cc3)cc2s1
65 | 856 s | CN(CCc1noc(COc2ccc(F)cc2)n1)C(=O)Nc1ccccc1
66 | 950 s | Cc1ccc(Nc2nc(C)cc(N3CCN(S(=O)(=O)c4cc(C(C)C)ccc4C)CC3)n2)cc1
67 | 777 s | O=C(NC1CCN(c2cc(-c3ccc(F)cc3)[nH]n2)C1)c1ccc(Cl)cc1 (stereo not drawn)
68 | 656 s | COc1cc(-c2nc3nc(C)cc(C)n3c2Nc2ccc(Cl)cc2)ccc1O
69 | 1140 s | O=C(Nc1ccccc1F)N1CC(Oc2cccc(-c3nc(-c4ccccc4)no3)c2)C1
70 | 880 s | O=C(O)c1cc2nc(-c3ccc(F)cc3)cc(C(F)(F)F)n2n1
71 | 955 s | Cc1ccc(-c2noc(C3CC(=O)N(c4ccc5c(c4)OCO5)C3)n2)cc1 (stereo not drawn)
72 | 928 s | O=C(CCn1nnc2cc(-c3noc(-c4cccc(F)c4)n3)ccc21)N1CCCC1

Row | RP-LC retention time | Compound
73 | 1120 s | COc1ccccc1CNS(=O)(=O)c1cc(-c2cc(C(F)(F)F)on2)sc1C
74 | 568 s | CCc1ccc2nc(C)cc(C(=O)NC)c2c1
75 | 890 s | Cc1nc(-c2ccc(F)cc2)sc1C(=O)N1CCC(CC(=O)N(C)Cc2ccco2)CC1
76 | 826 s | Cc1nc(-c2cn(C)c3ncccc23)sc1C(=O)NCc1ccc2c(c1)OCO2
77 | 861 s | Cc1cc(=O)n(CC(=O)NCc2ccc(F)cc2Cl)c(N)n1
78 | 1150 s | CCCN1C(=O)COc2ccc(-c3csc(NC(=O)c4cccc(Cl)c4)n3)cc21
79 | 754 s | O=C(c1ccc2cc[nH]c2c1)N1C[C@@H]2C[C@H]1C[C@@H]2NS(=O)(=O)c1cccs1
80 | 956 s | O=C(NCc1ccc(-c2nc(C3CC3)no2)s1)c1ccc(F)cc1F
81 | 1170 s | COc1ccc(-c2noc(CN3N=NC4C(=O)N(c5ccc(F)cc5)C(=O)C43)n2)c(OC)c1 (stereo not drawn)
82 | 807 s | CC(C)NC(=O)Cn1cccc(-c2nc(-c3ccc(Cl)cc3)no2)c1=O
83 | 658 s | CCOc1ccc2ncc(S(=O)(=O)c3ccc(C)c(C)c3)c(N3CCN(C)CC3)c2c1
84 | 673 s | O=C(Cn1cccc(-c2nc(-c3ccc(F)cc3)no2)c1=O)NCc1cccs1
85 | 1140 s | CCc1ccc(-c2noc(Cn3c(=O)n(-c4ccccc4C)c(=O)c4sccc43)n2)cc1
86 | 637 s | CNC(=O)c1ccc(-c2nc3cc(NS(=O)(=O)c4cc(F)ccc4F)ccc3n2C)cc1
87 | 1020 s | Cc1ccc(NC(=O)Nc2nccn(-c3ccc(F)c(F)c3)c2=O)cc1F
88 | 875 s | COC(=O)c1cc(S(=O)(=O)N2CCCC2C(=O)Nc2ccc(F)cc2F)cn1C (stereo not drawn)
